The test concerns the target PIK3CG (UniProt P48736). In words: Inhibition of PIK3CG Kinase Activity.

PIK3CG, sequence (P48736 whole entry, looked up): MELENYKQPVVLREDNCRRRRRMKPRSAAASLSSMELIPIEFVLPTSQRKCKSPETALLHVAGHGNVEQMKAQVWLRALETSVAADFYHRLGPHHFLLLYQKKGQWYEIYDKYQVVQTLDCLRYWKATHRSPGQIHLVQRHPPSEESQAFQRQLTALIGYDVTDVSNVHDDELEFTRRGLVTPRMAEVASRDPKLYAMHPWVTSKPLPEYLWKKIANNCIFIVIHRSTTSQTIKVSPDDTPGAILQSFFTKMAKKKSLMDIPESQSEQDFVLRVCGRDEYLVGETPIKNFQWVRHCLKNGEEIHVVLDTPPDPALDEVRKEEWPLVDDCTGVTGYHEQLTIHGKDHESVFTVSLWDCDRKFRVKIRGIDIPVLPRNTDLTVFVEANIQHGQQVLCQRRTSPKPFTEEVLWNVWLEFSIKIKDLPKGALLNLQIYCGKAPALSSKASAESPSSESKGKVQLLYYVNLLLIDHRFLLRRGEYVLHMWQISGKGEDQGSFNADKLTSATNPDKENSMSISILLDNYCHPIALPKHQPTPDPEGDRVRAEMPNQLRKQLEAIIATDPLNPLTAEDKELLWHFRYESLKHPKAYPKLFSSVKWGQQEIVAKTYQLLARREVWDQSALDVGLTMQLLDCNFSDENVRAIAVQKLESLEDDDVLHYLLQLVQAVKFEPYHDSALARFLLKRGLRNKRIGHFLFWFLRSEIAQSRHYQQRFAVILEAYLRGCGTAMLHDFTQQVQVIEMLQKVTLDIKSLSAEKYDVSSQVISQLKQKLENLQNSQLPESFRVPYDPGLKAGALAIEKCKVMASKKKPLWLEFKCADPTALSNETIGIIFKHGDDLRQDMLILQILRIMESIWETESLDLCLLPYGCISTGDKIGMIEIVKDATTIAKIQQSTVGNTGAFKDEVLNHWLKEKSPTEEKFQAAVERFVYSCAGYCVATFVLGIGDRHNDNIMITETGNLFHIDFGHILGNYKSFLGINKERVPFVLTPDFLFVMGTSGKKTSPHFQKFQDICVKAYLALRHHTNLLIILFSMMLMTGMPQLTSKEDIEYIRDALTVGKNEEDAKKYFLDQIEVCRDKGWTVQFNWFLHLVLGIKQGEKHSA

For `O=C1NC(=S)S/C1=C\c1ccc2c(c1)N(C(=O)/C=C/c1cccc(C(F)(F)F)c1)CCCO2`, the IC50 is 4010 nM.

As for `N#Cc1ccc(C(=O)N2CCCOc3ccc(/C=C4\SC(=S)NC4=O)cc32)cc1`, the IC50 turned out to be 2610 nM. The value for `COc1cc(NC(=O)N2CCCOc3ccc(/C=C4\SC(=S)NC4=O)cc32)cc(OC)c1` was 1320 nM. On to `COc1cc(NC(=O)N2CCOc3ccc(/C=C4\SC(=S)NC4=O)cc32)cc(OC)c1`, for which the IC50 amounted to 14 nM. The value for `CC1(C)C2CCC1(CS(=O)(=O)N1CCOc3ccc(/C=C4\SC(=S)NC4=O)cc31)CC2` was 330 nM; that for `O=C1NC(=S)S/C1=C\c1ccc2c(c1)N(C(=O)c1ccc3c(c1)C(=O)c1ccccc1C3=O)CCCO2` was 4990 nM; that for `O=C1NC(=S)S/C1=C\c1ccc2c(c1)N(C(=O)c1ccc3occc3c1)CCCO2` was 1530 nM. With `CN1CCN(Cc2ccccc2C(=O)N2CCOc3ccc(/C=C4\SC(=S)NC4=O)cc32)CC1` the figure was 115 nM; with `O=C1NC(=S)S/C1=C\c1ccc2c(c1)N(C(=O)Oc1ccccc1)CCCO2`, 424 nM; with `Cc1ccc(NC(=O)N2CCCOc3ccc(/C=C4\SC(=S)NC4=O)cc32)cc1`, 3500 nM. Turning to `O=C1NC(=S)S/C1=C\c1ccc2c(c1)N(C(=O)Cc1cccs1)CCCO2`, the IC50 was found to be 1140 nM. `CC(=O)Oc1ccc(OC(=O)N2CCCOc3ccc(/C=C4\SC(=S)NC4=O)cc32)cc1`: the IC50 turned out to be 640 nM. The value for `O=C1NC(=S)S/C1=C\c1ccc2c(c1)N(C(=O)c1ccc(Cl)c(Cl)c1)CCCO2` was 1380 nM; that for `Cc1ccc(OC(=O)N2CCCOc3ccc(/C=C4\SC(=S)NC4=O)cc32)cc1` was 704 nM; that for `O=C1NC(=S)S/C1=C\c1ccc2c(c1)N(C(=O)COCc1ccccc1)CCCO2` was 1650 nM. With `O=C1NC(=S)S/C1=C\c1ccc2c(c1)N(C(=O)c1ccco1)CCO2` the figure was 65 nM.

`CCCCCCc1ccc(C(=O)N2CCCOc3ccc(/C=C4\SC(=S)NC4=O)cc32)cc1` registered an IC50 of 4200 nM. With `Cc1oc(C(C)(C)C)cc1C(=O)N1CCCOc2ccc(/C=C3\SC(=S)NC3=O)cc21` the figure was 4600 nM; with `O=C1NC(=S)S/C1=C\c1ccc2c(c1)N(C(=O)C1CCCC1)CCCO2`, 1000 nM. The value for `O=C1NC(=S)S/C1=C\c1ccc2c(c1)N(C(=O)/C=C/c1ccccc1)CCCO2` was 1520 nM. For `Cc1cc(C)cc(CN2CCOc3ccc(/C=C4\SC(=S)NC4=O)cc32)c1`, the IC50 worked out at 650 nM. With `O=C1NC(=S)S/C1=C\c1ccc2c(c1)N(C(=O)C1CC1)CCCO2`, the IC50 was 115 nM.

Broadly, the IC50 is the concentration at which inhibition is half-maximal. A lower IC50 goes with higher potency.

For the origin of these results see the Kinase Knowledgebase extract (Sharma et al. 2016).
